Molecules are shown by their SMILES. Read-outs that look alike come from different tables or passages of the source. Marks after values point to notes of the source that are not given here.

Holding throughout (type): in vivo
For one test, the system named is C57BL/6J mice. As to the kind of experiment: Antifeeding activity (high fat diet intake up to 4 hours). The note with it: Mus musculus, male C57BL/6J mice, 5 mg/kg oral, food ingested up to 4 hours, read-out: Antifeeding rate (5 mg/kg). As to the method:
7 to 10 weeks-old male C57BL/6J mice were fasted overnight, and the test compound suspended in 0.2% carboxymethylcellulose solution was orally administered. Immediately after the administration, high fat diet (Oriental Yeast Co., Ltd, 60 cal % fat) was provided and freely fed. An amount of food ingested up to 4 hours was measured, and a lowering rate (an antifeeding rate) of the amount of food ingested in the Test compound administered group was calculated as compared to that of the solvent control group as a control.

In another test the test system is ICR mice. Nature of the test: Triglyceride (TG) in blood plasma increase-inhibiting action due to lipid administration. The note with it: Mus musculus; male ICR mice, 5 mg/kg oral, lipid (Intralipos 20%) after 30 minutes, plasma TG 2 hours after lipid; read-out: Inhibiting rate of TG-increase in blood plasma (5 mg/kg). The method, then: 6 to 9 weeks-old male ICR mice were fasted overnight, and Test compound suspended in 0.2% carboxymethyl cellulose solution was orally administered to the mice. A lipid (Intralipos 20%, OTSUKA PHARMACEUTICAL CO., LTD., 10 mL/kg) was orally administered after 30 minutes. Blood was collected from tail vein immediately before the lipid administration, and after 2 hours from the same to obtain blood plasma. Measurement of TG in blood plasma was carried out by using a triglyceride E Test Wako (Wako Pure Chemical Industries, Ltd.), and an increased value of TG in blood plasma by administration of the lipid was calculated. An increased value of TG in blood plasma in a solvent control group was used as a control, and an inhibiting rate in increase of TG in blood plasma in the Test compound administered group was calculated.

The test system of the next test is KK-Ay mice. Nature of the test: Weight gain-inhibiting action, hypoglycemic effect, insulin in blood plasma lowering action in KK-Ay mice. The settings on record: male KK-Ay mice, high fat diet, 2 weeks; for inhibition in vivo at 30 mg/kg: Mus musculus, 336 h, 30 mg/kg/day oral. As to the method: To 8 weeks-old male KK-Ay mice were provided high fat diet (Oriental Yeast Co., Ltd, 60 cal % fat), and Test compound suspended in 0.2% carboxymethylcellulose solution was orally administered once a day. Oral administration was continued for 2 weeks, and a weight gain-inhibiting rate of the Test compound was calculated by using a weight gain amount of the solvent control group during the test period as 100%. After final administration, the mice were fasted overnight, and blood was collected from tail vein. Measurement of a blood-sugar level was carried out by using glucose Cα Test Wako (Wako Pure Chemical Industries, Ltd.), and measurement of insulin in blood plasma was carried out by using a mouse insulin measurement kit (Morinaga Institute of Biological Science, Inc.).

Where [1] appears, read: read-out: Hypoglycemic action (30 mg/kg/day).
[2] abbreviates: read-out: Insulin in blood plasma-lowering action (30 mg/kg/day).
Setting [3] is: administration dose of 1 mg/kg/day oral.

In the case of `CC(C)(COc1ccc(-c2ccc(-c3ncc(C(F)(F)F)[nH]3)cn2)cn1)C(=O)O` [Example 13-3), 2,2-dimethyl-3-[[5-[5-[4-(trifluoromethyl)-1H-imidazol-2-yl]-2-pyridyl]-2-pyridyl]oxy]propanoic acid], the values for the inhibition in vivo at 5 mg/kg in the test with C57BL/6J mice and in the test on ICR mice were 60% and 51%, respectively. The matching figures for `Cc1cc(OCC2(C(=O)O)CC2)ncc1-c1ccc(-c2ncc(C(F)(F)F)[nH]2)c(F)c1` [Example 133]: 83% and 75%. As for `CC(C)(COc1ccc(-c2ccc(-c3ncc(C(C)(C)C(F)(F)F)[nH]3)c(F)c2)cn1)C(=O)O` [Example 53], in the test on ICR mice, the inhibition in vivo at 5 mg/kg turned out to be 36%. Turning to `CC(C)(COc1ccc(-c2ccc(-c3ncc(C(F)(F)F)[nH]3)nc2)cc1)C(=O)O` [Example 68], the results for the inhibition in vivo at 5 mg/kg in the test on C57BL/6J mice and with ICR mice were 63% and 64%, respectively.

As to `O=C(O)C1(COc2ccc(-c3ccc(-c4ncc(C(F)(F)F)[nH]4)nc3)cn2)CCCC1` [Example 16], the inhibition in vivo at 5 mg/kg in the test with C57BL/6J mice was 75%; in the test with ICR mice, 74%. The matching figures for `Cc1cc(OCC(C)(C)C(=O)O)ccc1-c1ccc(-c2ncc(C(F)(F)F)[nH]2)cn1` [Example 9]: 76% and 75%. Turning to `CC(C)(COc1cnc(-c2ccc(-c3ncc(C4(C(F)(F)F)CCC4)[nH]3)cc2)cn1)C(=O)O` [Example 48], the inhibition in vivo at 5 mg/kg in the test on ICR mice was 23%. On to `CC(C)(COc1ccc(-c2ccc(-c3ncc(C4CCCCC4)[nH]3)cn2)cc1)C(=O)O` [Example 56], for which the values for the inhibition in vivo at 5 mg/kg in the test with C57BL/6J mice and with ICR mice were 76% and 61%, respectively. For `O=C(O)C1(COc2ccc(-c3ccc(-c4ncc(C(F)(F)F)[nH]4)cn3)cn2)CCCC1` [Example 17], the inhibition in vivo at 5 mg/kg in the test with C57BL/6J mice worked out at 82%; with ICR mice, 69%. The matching figures for `CCc1cc(OCC(C)(C)C(=O)O)ccc1-c1ccc(-c2ncc(C(F)(F)F)[nH]2)cn1` [Example 85-4), 3-(3-ethyl-4-{5-[5-(trifluoromethyl)-1H-imidazol-2-yl]pyridin-2-yl}phenoxy)-2,2-dimethylpropanoic acid]: 70% and 69%.

Regarding `O=C(O)C1(COc2ccc(-c3ccc(-c4ncc(C(F)(F)F)[nH]4)cn3)cc2)CCOCC1` [Example 21], the inhibition in vivo at 5 mg/kg in the test with ICR mice stood at 20%.

Turning to `Cc1cc(OCC(C)(C)C(=O)O)ncc1-c1ccc(-c2ncc(C(F)(F)F)[nH]2)c(C2CC2)c1` [Example 131], the inhibition in vivo at 5 mg/kg in the test on ICR mice came to 57%. For the compound `CC(C)(COc1ccc(-c2ccc(-c3ncc(C(F)(F)F)[nH]3)cn2)cc1)C(=O)O` [Example 1-3), 2,2-dimethyl-3-(4-{5-[5-(trifluoromethyl)-1H-imidazol-2-yl]pyridin-2-yl}phenoxy)propanoic acid], the inhibition in vivo at 30 mg/kg is 43% with KK-Ay mice (setting [1]) and 58% with KK-Ay mice (setting [2]). Consider `Cc1cc(OCC(C)(C)C(=O)O)ncc1-c1ccc(-c2ncc(CC3CC3)[nH]2)cc1` [Example 108], for which the inhibition in vivo at 5 mg/kg with C57BL/6J mice came to 62%; in the test with ICR mice, 52%. The matching figures for `CC(C)(CCOc1ccc(-c2ccc(-c3ncc(C(F)(F)F)[nH]3)cn2)cc1)C(=O)O` [Example 18-2), 2,2-dimethyl-4-[4-[5-[5-(trifluoromethyl)-1H-imidazol-2-yl]-2-pyridin]phenoxy]butanoic acid]: 83% and 69%. Regarding `CC(C)(COc1ccc(-c2ccc(-c3ncc(CCC4CC4)[nH]3)cn2)cc1)C(=O)O` [Example 30], the inhibition in vivo at 5 mg/kg in the test with C57BL/6J mice is 68%; in the test on ICR mice it was 60%.

As for `CCC(CC)(COc1cc(C)c(-c2ccc(-c3ncc(C(F)(F)F)[nH]3)c(F)c2)cn1)C(=O)O` [Example 134], the inhibition in vivo at 5 mg/kg amounted to 74% in the test with C57BL/6J mice and 84% in the test with ICR mice. In the case of `Cc1cc(OCC2(C(=O)O)CCC2)ncc1-c1cnc(-c2ncc(C(F)(F)F)[nH]2)c(F)c1` [Example 137], the inhibition in vivo at 5 mg/kg in the test on C57BL/6J mice is 83%; in the test with ICR mice it was 81%. As to `Cc1cc(OCC2(C(=O)O)CC2)ncc1-c1cnc(-c2ncc(C(F)(F)F)[nH]2)c(Cl)c1` [Example 139], the inhibition in vivo at 5 mg/kg in the test on ICR mice was 52%. In the case of `CC(C)(COc1ccc(-c2ccc(-c3ncc(C(C)(C)C)[nH]3)cn2)cc1)C(=O)O` [Example 57], in the test on ICR mice, the inhibition in vivo at 5 mg/kg was 43%.

On to `CC(C)(COc1ncc(-c2ccc(-c3ncc(C4(C(F)(F)F)CCC4)[nH]3)cc2)cc1F)C(=O)O` [Example 144], for which, in the test on ICR mice, the inhibition in vivo at 5 mg/kg turned out to be 7%. The same measure, in the same setting: in the case of `Cc1cc(-c2cnc(OCC(C)(C)C(=O)O)nc2)ccc1-c1ncc(C(F)(F)F)[nH]1` [Example 145] it was 43%. For the compound `CC(C)(COc1ccc(-c2ccc(-c3nc(C(F)(F)F)c[nH]3)cn2)cc1)C(=O)O` [Example 94-3), 2,2-dimethyl-3-[4-[5-[4-(trifluoromethyl)-1H-imidazol-2-yl]-2-pyridyl]phenoxy]propanoic acid], in the test on KK-Ay mice (setting [3]), the Hypoglycemic action is 42%* and the “Insulin in blood plasma-lowering action” value came out at 29%*. `O=C(O)CCCCOc1ccc(-c2ccc(-c3ncc(C(F)(F)F)[nH]3)cn2)cc1` [Example 15]: the inhibition in vivo at 5 mg/kg in the test with ICR mice came to 32%. Consider `CC(C)(COc1ccc(-c2ccc(-c3ncc(C(F)(F)F)[nH]3)c(F)c2F)cn1)C(=O)O` [Example 80], for which the inhibition in vivo at 5 mg/kg in the test on ICR mice was determined as 41%. On the same count and under the same terms, as for `COc1cc(-c2cnc(OCC(C)(C)C(=O)O)cc2C)ccc1-c1ncc(C(F)(F)F)[nH]1` [Example 129], the figure is 16%; as for `CCC(CC)(COc1cc(C)c(-c2ccc(-c3ncc(C(F)(F)F)[nH]3)nc2)cn1)C(=O)O` [Example 127], 44%; as for `CC(C)(COc1ccc(-c2ccc(-c3ncc(CCC(F)(F)F)[nH]3)cn2)cc1)C(=O)O` [Example 24], 33%. As for `Cc1cc(OCC(C)(C)C(=O)O)ncc1-c1ccc(-c2ncc(C3(C(F)(F)F)CCC3)[nH]2)c(F)c1` [Example 52], the inhibition in vivo at 5 mg/kg in the test with ICR mice came out at 26%. Turning to `CC(C)(COc1ccc(-c2ccc(-c3ncc(C4CCC4)[nH]3)cn2)cc1)C(=O)O` [Example 55-2), 3-[4-[5-(5-cyclobutyl-1H-imidazol-2-yl)-2-pyridyl]phenoxy]-2,2-dimethylpropanoic acid], the inhibition in vivo at 5 mg/kg with C57BL/6J mice is 39%. In the case of `Cc1cc(OCC(C)(C)C(=O)O)ncc1-c1ccc(-c2ncc(C3(C(F)(F)F)CCC3)[nH]2)nc1` [Example 46], the inhibition in vivo at 5 mg/kg in the test with ICR mice was determined as 13%. In the case of `CC(C)(COc1cnc(-c2ccc(-c3ncc(C(C)(C)C(F)(F)F)[nH]3)cc2)cn1)C(=O)O` [Example 50], the inhibition in vivo at 5 mg/kg with ICR mice turned out to be 21%.

Take `CC(C)(COc1ccc(-c2ccc(-c3ncc(C(C)(C)C(F)(F)F)[nH]3)cn2)cc1)C(=O)O` [Example 2-3), sodium 2,2-dimethyl-3-(4-{5-[5-(2,2,2-trifluoro-1,1-dimethylethyl)-1H-imidazol-2-yl]pyridin-2-yl}phenoxy)propanoate]: the results for the inhibition in vivo at 30 mg/kg with KK-Ay mice (setting [1]), in the test on KK-Ay mice (setting [2]) and in the test on KK-Ay mice (read-out: Weight gain-inhibiting action (30 mg/kg/day)) were 64%, 62% and 53%, respectively. Regarding `CC(C)(COc1ccc(-c2ccc(-c3ncc(C4CCC(F)(F)CC4)[nH]3)cn2)cc1)C(=O)O` [Example 34], the inhibition in vivo at 5 mg/kg in the test with ICR mice was 19%.

Take `Cc1cc(OCC2(C(=O)O)CC2)ncc1-c1ccc(-c2ncc(C(F)(F)F)[nH]2)c(Cl)c1` [Example 100-5), 1-{[(5-{3-chloro-4-[5-(trifluoromethyl)-1H-imidazol-2-yl]phenyl}-4-methylpyridin-2-yl)oxy]methyl}cyclopropanecarboxylic acid]: the inhibition in vivo at 5 mg/kg with ICR mice was determined as 60%.

Take `CC(C)(COc1ncc(-c2ccc(-c3ncc(C4(C(F)(F)F)CC4)[nH]3)cc2)cc1F)C(=O)O` [Example 111]: the inhibition in vivo at 5 mg/kg with ICR mice was 41%. Still for that read-out and setting: in the case of `CC(C)(COc1ccc(-c2ccc(-c3ncc(C(F)(F)F)[nH]3)cn2)c(F)c1F)C(=O)O` [Example 75] it was 5%. Still for that read-out and setting: as for `Cc1cc(OCC(C)(C)C(=O)O)ncc1-c1ccc(-c2ncc(CC(C)C)[nH]2)c(C)c1` [Example 103], the figure is 8%. Still for that read-out and setting: as for `O=C(O)CCCOc1ccc(-c2ccc(-c3ncc(C(F)(F)F)[nH]3)cn2)cc1` [Example 11], the figure is 31%.
